Measurements as given in patent US10590082B2, “N-(5-((aryl or heteroaryl)methyloxy)pentyl)-substituted iminosugars as inhibitors of glucosylceramide synthase” (Academisch Medisch Centrum, priority 2014, dated 2020).
Where two headings read alike, the source gives them in different places.

Columns and labels:
[1] = test system: intestinal glycosidases; settings: background statement; cited from earlier work
[2] = molecular target: T1, GBA1 (Homo sapiens, UniProt P04062, R534H); experiment: GBA1 activity, recombinant human enzyme (Cerezyme), 4-MU-β-glucoside substrate; assay type: biochemical;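 further: enzyme activity read out as fluorescence of the 4-MU released from the substrate, measured on a fluorimeter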
T1 construct: purchased Sanofi (Cerezyme)
T1 sequence (P04062 40-536 R534H): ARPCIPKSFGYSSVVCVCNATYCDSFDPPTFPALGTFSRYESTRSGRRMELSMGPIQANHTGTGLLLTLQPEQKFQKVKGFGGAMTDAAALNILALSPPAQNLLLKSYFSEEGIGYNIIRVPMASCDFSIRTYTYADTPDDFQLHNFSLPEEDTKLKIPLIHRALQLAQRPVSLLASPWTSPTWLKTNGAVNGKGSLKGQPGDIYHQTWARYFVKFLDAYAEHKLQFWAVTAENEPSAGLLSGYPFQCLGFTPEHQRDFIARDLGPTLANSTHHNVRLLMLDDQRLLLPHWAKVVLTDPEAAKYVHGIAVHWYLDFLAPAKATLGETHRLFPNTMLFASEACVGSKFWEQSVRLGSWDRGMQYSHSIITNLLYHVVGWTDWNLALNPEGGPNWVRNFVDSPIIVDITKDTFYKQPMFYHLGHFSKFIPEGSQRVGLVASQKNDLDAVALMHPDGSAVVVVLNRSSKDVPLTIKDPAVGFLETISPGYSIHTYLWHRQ

[3] = molecular target: T2, glucosylceramide synthase (GCS) (Mus musculus, UniProt O88693); experiment: GCS activity in living macrophage  cells (C6-NBD lipid, TLC readout); assay type: cell-based; settings: read-out: GCS [nM] (IC50)
T2 construct: IC50 values for GCS activity were measured using living cells; endogenous in cells
T2 sequence (O88693 1-394): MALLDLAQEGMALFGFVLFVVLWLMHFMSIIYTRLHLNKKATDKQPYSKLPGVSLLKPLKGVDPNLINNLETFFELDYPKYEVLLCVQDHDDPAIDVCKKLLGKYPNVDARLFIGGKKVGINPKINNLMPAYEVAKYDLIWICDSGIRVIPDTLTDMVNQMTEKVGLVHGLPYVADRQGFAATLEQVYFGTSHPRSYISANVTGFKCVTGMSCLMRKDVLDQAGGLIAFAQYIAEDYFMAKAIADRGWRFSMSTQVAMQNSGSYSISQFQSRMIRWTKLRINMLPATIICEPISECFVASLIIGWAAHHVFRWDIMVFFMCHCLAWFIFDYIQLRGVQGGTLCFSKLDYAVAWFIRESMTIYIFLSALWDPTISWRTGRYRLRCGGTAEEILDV

[4] = molecular target: T3, GBA2 (Homo sapiens, UniProt Q9HCG7); experiment: GBA2 activity, membrane fraction from Gaucher spleen, 4-MU-β-glucoside substrate; assay type: biochemical;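 further: Read-out is fluorimetric quantification of released 4-MU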
T3 construct: measured using a membrane fraction obtained from Gaucher spleen; from tissue; host or cells: membrane fraction of Gaucher spleen, pre-treated with conduritol B-epoxide
T3 sequence (Q9HCG7 1-927): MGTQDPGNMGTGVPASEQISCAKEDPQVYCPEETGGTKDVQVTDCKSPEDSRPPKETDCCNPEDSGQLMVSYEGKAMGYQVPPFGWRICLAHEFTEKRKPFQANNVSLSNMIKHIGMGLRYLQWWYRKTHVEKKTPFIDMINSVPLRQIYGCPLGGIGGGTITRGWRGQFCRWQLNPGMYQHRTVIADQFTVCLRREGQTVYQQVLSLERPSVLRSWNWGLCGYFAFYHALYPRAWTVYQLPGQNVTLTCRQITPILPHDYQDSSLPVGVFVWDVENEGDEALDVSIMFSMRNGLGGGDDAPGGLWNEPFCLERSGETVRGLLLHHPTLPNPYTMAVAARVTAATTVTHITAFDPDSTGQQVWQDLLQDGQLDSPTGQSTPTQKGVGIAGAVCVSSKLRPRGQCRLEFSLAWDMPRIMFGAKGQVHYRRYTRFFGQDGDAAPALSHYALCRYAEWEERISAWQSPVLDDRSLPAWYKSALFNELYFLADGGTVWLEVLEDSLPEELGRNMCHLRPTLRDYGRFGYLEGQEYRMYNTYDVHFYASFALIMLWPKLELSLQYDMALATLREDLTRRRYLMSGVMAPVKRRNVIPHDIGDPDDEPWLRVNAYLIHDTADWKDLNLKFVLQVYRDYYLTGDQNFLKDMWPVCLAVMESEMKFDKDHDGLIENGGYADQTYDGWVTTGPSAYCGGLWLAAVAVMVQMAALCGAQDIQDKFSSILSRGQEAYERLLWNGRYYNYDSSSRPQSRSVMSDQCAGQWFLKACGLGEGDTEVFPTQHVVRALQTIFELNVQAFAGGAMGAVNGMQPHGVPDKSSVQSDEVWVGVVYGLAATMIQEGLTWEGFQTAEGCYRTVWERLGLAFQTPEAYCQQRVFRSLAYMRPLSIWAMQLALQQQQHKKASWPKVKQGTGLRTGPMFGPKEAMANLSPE

[5] = D-gluco configuration series, Example 3

**Q.** With `OC[C@H]1[C@@H](O)[C@H](O)[C@@H](O)CN1CCCCCOCC12CC3CC(CC(C3)C1)C2` [Compound 2, (adamantanemethyloxypentyl)-L-ido-deoxynojirimycin] as the compound, how does the “inhibitory activity against the intestinal glycosidases” value [1] read?
**A.** The value was “little to no inhibitory activity”.

**Q.** What does the source list for `Cc1ccccc1-c1ccc(COCCCCCN2C[C@H](O)[C@@H](O)[C@H](O)[C@H]2CO)cc1` [Compound 34]?
**A.** IC50 [2]: 70 nM; IC50 [3, 5]: 25 nM; IC50 [4, 5]: 0.5 nM

**Q.** For `OC[C@@H]1[C@@H](O)[C@H](O)[C@@H](O)CN1CCCCCOCc1ccc(-c2cccc(F)c2)cc1` [Compound 26], which IC50 [2] is on record?
**A.** The IC50 was 250 nM.

**Q.** What about the IC50 [3] of the same compound?
**A.** Its IC50 is 25 nM.

**Q.** What about the IC50 [4] of the same compound?
**A.** The IC50 was 2 nM.

**Q.** For `OC[C@@H]1[C@@H](O)[C@H](O)[C@@H](O)CN1CCCCCOCc1ccc(-c2ccc3c(c2)OCCCO3)cc1` [Compound 19], which IC50 [2] is on record?
**A.** Its IC50 is 3000 nM.

**Q.** What about the IC50 [3] of the same compound?
**A.** The IC50 was 25 nM.

**Q.** What about the IC50 [4] of the same compound?
**A.** Its IC50 is 10 nM.

**Q.** Which IC50 [2] does the source give for `N#Cc1ccc(-c2ccc(COCCCCCN3C[C@H](O)[C@@H](O)[C@H](O)[C@H]3CO)cc2)cc1` [Compound 30] here?
**A.** The IC50 was 350 nM.

**Q.** And the IC50 [3]?
**A.** The IC50 was 150 nM.

**Q.** What about the IC50 [4, 5] of the same compound?
**A.** The IC50 was 3 nM.

**Q.** Which IC50 [2] does the source give for `OC[C@@H]1[C@@H](O)[C@H](O)[C@@H](O)CN1CCCCCOCc1ccc(-c2ccc(F)cc2)cc1` [Compound 27] here?
**A.** The IC50 was 400 nM.

**Q.** And the IC50 [3]?
**A.** The IC50 was 25 nM.

**Q.** What about the IC50 [4, 5] of the same compound?
**A.** The IC50 was 1 nM.

**Q.** For `OC[C@H]1[C@@H](O)[C@H](O)[C@@H](O)CN1CCCCCOCc1cccc(-c2ccccc2)c1` [Compound 41], which IC50 [2] is on record?
**A.** The IC50 was 20000 nM.

**Q.** And the IC50 [3]?
**A.** Its IC50 is 75 nM.

**Q.** What about the IC50 ([4]; L-ido configuration series, Example 4) of the same compound?
**A.** Its IC50 is 2 nM.

**Q.** Which IC50 [2] does the source give for `OC[C@@H]1[C@@H](O)[C@H](O)[C@@H](O)CN1CCCCCOCc1ccc(-c2ccc(F)nc2)cc1` [Compound 15] here?
**A.** Its IC50 is 3000 nM.

**Q.** What about the IC50 [3] of the same compound?
**A.** The IC50 was 750 nM.

**Q.** What about the IC50 [4, 5] of the same compound?
**A.** The IC50 was 5 nM.
